Results as given in patent publication US10072252B2 (priority 2013, dated 2018).
Several values for one entry are separate records, joined by “and”; a condition that tells them apart may be missing. Equal values may be shown once. Read-outs that look alike come from different tables or passages of the source.

Assays:
[1] = target: T1, Sulfolobus solfataricus SsoPox variant W263V, SEQ ID NO: 17 (Saccharolobus solfataricus, UniProt Q97VT7, W263V)
[2] = target: T2, Sulfolobus solfataricus SsoPox variant W263T, SEQ ID NO: 19 (Saccharolobus solfataricus, UniProt Q97VT7, W263T)
[3] = target: T3, Sulfolobus solfataricus SsoPox variant W263A, SEQ ID NO: 13 (Saccharolobus solfataricus, UniProt Q97VT7, W263A)
[4] = target: T4, Sulfolobus solfataricus SsoPox variant W263L, SEQ ID NO: 11 (Saccharolobus solfataricus, UniProt Q97VT7, W263L); type: biochemical
T4 construct: made in house; host or cells: E. coli BL21(DE3)-pGro7/GroEL

[5] = target: T5, Sulfolobus solfataricus SsoPox, wild type (wt), SEQ ID NO: 3 (Saccharolobus solfataricus, UniProt Q97VT7)
[6] = target: T6, Sulfolobus solfataricus SsoPox variant W263F (of SEQ ID NO: 3) (Saccharolobus solfataricus, UniProt Q97VT7, W263F)
[7] = target: T7, Sulfolobus solfataricus SsoPox variant W263I, SEQ ID NO: 15 (Saccharolobus solfataricus, UniProt Q97VT7, W263I)
[8] = target: T8, Sulfolobus solfataricus SsoPox variant W263M, SEQ ID NO: 9 (Saccharolobus solfataricus, UniProt Q97VT7, W263M); type: biochemical
T8 construct: made in house; host or cells: E. coli BL21(DE3)-pGro7/GroEL

[9] = target: T5, Sulfolobus solfataricus SsoPox, wild type (wt), SEQ ID NO: 3; type: biochemical; parameters: made in house; host or cells: E. coli BL21(DE3)-pGro7/GroEL
[10] = target: T5, Sulfolobus solfataricus SsoPox, wild type (wt), SEQ ID NO: 3; parameters: made in house; host or cells: E. coli BL21(DE3)-pGro7/GroEL; conditions: cited from earlier work
[11] = target: T8, Sulfolobus solfataricus SsoPox variant W263M, SEQ ID NO: 9; type: biochemical; remark: listed apart in the source
[12] = target: T4, Sulfolobus solfataricus SsoPox variant W263L, SEQ ID NO: 11; type: biochemical; remark: listed apart in the source
[13] = target: T1, Sulfolobus solfataricus SsoPox variant W263V, SEQ ID NO: 17; type: biochemical; parameters: made in house; host or cells: E. coli BL21(DE3)-pGro7/GroEL
[14] = target: T2, Sulfolobus solfataricus SsoPox variant W263T, SEQ ID NO: 19; type: biochemical; parameters: made in house; host or cells: E. coli BL21(DE3)-pGro7/GroEL
[15] = target: T9, Sulfolobus solfataricus SsoPox variant αsA1 (C258L/I261F/W263A), SEQ ID NO: 21 (Saccharolobus solfataricus, UniProt Q97VT7, C258L/I261F/W263A); type: biochemical; conditions: pH 8
T9 construct: made in house; host or cells: E. coli BL21(DE3)-pGro7/GroEL
T9 sequence (Q97VT7 1-314 C258L/I261F/W263A): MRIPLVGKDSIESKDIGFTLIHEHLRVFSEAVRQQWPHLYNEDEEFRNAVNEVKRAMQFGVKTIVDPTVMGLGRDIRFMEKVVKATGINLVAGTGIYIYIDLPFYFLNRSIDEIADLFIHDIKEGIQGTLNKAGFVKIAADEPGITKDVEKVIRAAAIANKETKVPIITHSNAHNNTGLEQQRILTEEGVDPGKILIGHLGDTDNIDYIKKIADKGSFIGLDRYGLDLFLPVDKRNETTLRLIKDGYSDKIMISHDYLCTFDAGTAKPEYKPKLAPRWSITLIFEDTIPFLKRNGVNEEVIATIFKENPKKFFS

[16] = target: T6, Sulfolobus solfataricus SsoPox variant W263F (of SEQ ID NO: 3); type: biochemical; parameters: made in house; host or cells: E. coli BL21(DE3)-pGro7/GroEL
[17] = target: T7, Sulfolobus solfataricus SsoPox variant W263I, SEQ ID NO: 15; type: biochemical; parameters: made in house; host or cells: E. coli BL21(DE3)-pGro7/GroEL
[18] = target: T3, Sulfolobus solfataricus SsoPox variant W263A, SEQ ID NO: 13; type: biochemical; parameters: made in house; host or cells: E. coli BL21(DE3)-pGro7/GroEL
[19] = system: 3-oxo-C12 AHL; type: cell-based, Pseudomonas aeruginosa
[20] = type: physicochemical; conditions: pH 8

CCCCCCCCCC(=O)CC(=O)N[C@H]1CCOC1=O [3-oxo-C12 AHL]
Enhancement/wt [1]: 65.8 and 54.5 ± 20.4 | kcat ([1]; pH 8.3): 3.00 ± 0.07 s⁻¹ | kcat/KM ([1]; pH 8.3): 1.21(±0.26) × 10^5 M^−1s^−1 | Enhancement/wt [2]: 25.6 and 21.2 ± 7.2 | kcat ([2]; pH 8.3): 6.44 ± 0.22 s⁻¹ | kcat/KM ([2]; pH 8.3): 4.70(±0.67) × 10^4 M^−1s^−1 | Enhancement/wt [3]: 0.42 | ability to hydrolyse [3]: lost the ability to hydrolyse | Enhancement/wt [4]: 0 | ability to hydrolyse [4]: lost the ability to hydrolyse | Enhancement/wt [5]: 1 | kcat/KM [5]: 2.96(±0.99)×10^3 M^−1s^−1 | Enhancement/wt [6]: 1.5 and 1.3 ± 0.5 | kcat ([6]; pH 8.3): 0.41 ± 0.02 s⁻¹ | kcat/KM ([6]; pH 8.3): 2.81(±0.65) × 10^3 M^−1s^−1 | Enhancement/wt [7]: 54.7 and 45.5 ± 18.8 | kcat ([7]; pH 8.3): 1.80 ± 0.05 s⁻¹ | Enhancement/wt [8]: 0 | ability to hydrolyse [8]: lost the ability to hydrolyse

CCOP(=O)(OCC)Oc1ccc([N+](=O)[O-])cc1 [Paraoxon, paraoxon]
Enhancement/wt [9]: 1 | catalytic efficiency improvement induced by SDS [9]: 12.4 times | kcat/KM [10]: 6.41(±1.51)×10^3 M^−1s^−1 | Catalytic activity ([10]; pH 8): 5.19(±1.31) · 10^2 M^−1s^−1 | Km ([10]; pH 8): 24300 ± 3720 µM | kcat ([10]; pH 8): 12.59 ± 1.26 s⁻¹ | kcat/KM ([10]; pH 8): 5.19(±1.31) × 10^2 M^−1s^−1 | Enhancement/wt [11]: 14.1 | Km ([11]; pH 8): 931 ± 163 µM | kcat ([11]; pH 8): 6.82 ± 0.57 s⁻¹ | kcat/KM ([11]; pH 8): 7.33(±1.9) × 10^3 M^−1s^−1 | Enhancement/wt [12]: 4.6 | catalytic efficiency improvement induced by SDS [12]: 19.8 times | kcat [12]: 3.17 ± 0.18 s⁻¹ and 3.13 ± 0.25 s⁻¹ | kcat/KM ([12]; pH 8): 2.37(±0.33) × 10^3 M^−1s^−1 | Enhancement/wt [13]: 1.7 | kcat/KM ([13]; pH 8): 8.83(±0.3) × 10^2 M^−1s^−1 | Enhancement/wt [14]: 2.0 | kcat/KM ([14]; pH 8): 1.06(±0.03) × 10^3 M^−1s^−1 | Catalytic activity [15]: 3.37(±0.94) · 10^4 M^−1s^−1 | Enhancement/wt [16]: 23.3 | Km ([16]; pH 8): 700 ± 146 µM | kcat ([16]; pH 8): 8.47 ± 0.53 s⁻¹ | kcat/KM ([16]; pH 8): 1.21(±0.33)×10^4 M^−1s^−1 | Enhancement/wt [17]: 2.3 | kcat/KM ([17]; pH 8): 1.21(±0.59) × 10^3 M^−1s^−1 | Enhancement/wt [18]: 6.8 | Km ([18]; pH 8): 1490 ± 351 µM | kcat ([18]; pH 8): 5.29 ± 0.69 s⁻¹ | kcat/KM ([18]; pH 8): 3.55(±1.30)×10^3 M^−1s^−1

B1: SsoPox W263A: SEQ ID NO: 3 with substitution of tryptophan W in position 263 by alanine A (protein, listed as Sulfolobus solfataricus)
chain: MRIPLVGKDSIESKDIGFTLIHEHLRVFSEAVRQQWPHLYNEDEEFRNAVNEVKRAMQFGVKTIVDPTVMGLGRDIRFMEKVVKATGINLVAGTGIYIYIDLPFYFLNRSIDEIADLFIHDIKEGIQGTLNKAGFVKIAADEPGITKDVEKVIRAAAIANKETKVPIITHSNAHNNTGLEQQRILTEEGVDPGKILIGHLGDTDNIDYIKKIADKGSFIGLDRYGLDLFLPVDKRNETTLRLIKDGYSDKIMISHDYCCTIDAGTAKPEYKPKLAPRWSITLIFEDTIPFLKRNGVNEEVIATIFKENPKKFFS
relative lactonase activity in screening (3-oxo-C12 AHL hydrolysis) [19]: selected for a potential lactonase activity improvement

B2: SsoPox W263V: SEQ ID NO: 3 with substitution of tryptophan W in position 263 by valine V (protein, listed as Sulfolobus solfataricus)
chain: MRIPLVGKDSIESKDIGFTLIHEHLRVFSEAVRQQWPHLYNEDEEFRNAVNEVKRAMQFGVKTIVDPTVMGLGRDIRFMEKVVKATGINLVAGTGIYIYIDLPFYFLNRSIDEIADLFIHDIKEGIQGTLNKAGFVKIAADEPGITKDVEKVIRAAAIANKETKVPIITHSNAHNNTGLEQQRILTEEGVDPGKILIGHLGDTDNIDYIKKIADKGSFIGLDRYGLDLFLPVDKRNETTLRLIKDGYSDKIMISHDYCCTIDVGTAKPEYKPKLAPRWSITLIFEDTIPFLKRNGVNEEVIATIFKENPKKFFS
melting temperature [20]: 84.1±1.6 °C | relative lactonase activity in screening (3-oxo-C12 AHL hydrolysis) [19]: selected for a potential lactonase activity improvement

B3: SsoPox W263T: SEQ ID NO: 3 with substitution of tryptophan W in position 263 by threonine T (protein, listed as Sulfolobus solfataricus)
chain: MRIPLVGKDSIESKDIGFTLIHEHLRVFSEAVRQQWPHLYNEDEEFRNAVNEVKRAMQFGVKTIVDPTVMGLGRDIRFMEKVVKATGINLVAGTGIYIYIDLPFYFLNRSIDEIADLFIHDIKEGIQGTLNKAGFVKIAADEPGITKDVEKVIRAAAIANKETKVPIITHSNAHNNTGLEQQRILTEEGVDPGKILIGHLGDTDNIDYIKKIADKGSFIGLDRYGLDLFLPVDKRNETTLRLIKDGYSDKIMISHDYCCTIDTGTAKPEYKPKLAPRWSITLIFEDTIPFLKRNGVNEEVIATIFKENPKKFFS
melting temperature [20]: 89.2±0.4 °C | relative lactonase activity in screening (3-oxo-C12 AHL hydrolysis) [19]: selected for a potential lactonase activity improvement
